Here are results for 1 molecule from patent US10681912B2, “Dispersion solution containing antibacterial ultrafine metal particles and method of producing the same” (TOYO SEIKAN GROUP HOLDINGS, LTD., priority 2013, dated 2020).

The nature of this data set: SP values (solubility parameter). Type of data set: physicochemical. The conditions noted are these: δ=(E/V)^1/2. An excerpt: The SP value has the same meaning as the solubility parameter, and serves as a rough indication of mixing property between the liquids. If the cohesive energy is denoted by E and the molar volume by V, then the SP value δ is given by δ=(E/V)^1/2.

Regarding `CC(=O)CC(C)C` [Methylisobutyl ketone], the “SP Value” is given as 8.7.
